Results from patent US5442043A, “Peptide conjugate” (Takeda Chemical Industries, Ltd., priority 1992, dated 1995).
Bridge positions count the residues as written; N and C are the ends. Peptide text beside a SMILES is read from it. I, II: the chains in the order shown.

Key:
[1] = compared with natural insulin; cited from earlier work
[2] = target: T1, insulin receptor on the capillary endothelial cell (Bos taurus, UniProt F1MV64); assay: Competitive inhibition of 125I-insulin binding on bovine brain microvessel endothelial cell monolayers
T1 construct: endogenous in cells; host or cells: primary bovine brain microvessel endothelial cell monolayers
T1 sequence (F1MV64 28-1382): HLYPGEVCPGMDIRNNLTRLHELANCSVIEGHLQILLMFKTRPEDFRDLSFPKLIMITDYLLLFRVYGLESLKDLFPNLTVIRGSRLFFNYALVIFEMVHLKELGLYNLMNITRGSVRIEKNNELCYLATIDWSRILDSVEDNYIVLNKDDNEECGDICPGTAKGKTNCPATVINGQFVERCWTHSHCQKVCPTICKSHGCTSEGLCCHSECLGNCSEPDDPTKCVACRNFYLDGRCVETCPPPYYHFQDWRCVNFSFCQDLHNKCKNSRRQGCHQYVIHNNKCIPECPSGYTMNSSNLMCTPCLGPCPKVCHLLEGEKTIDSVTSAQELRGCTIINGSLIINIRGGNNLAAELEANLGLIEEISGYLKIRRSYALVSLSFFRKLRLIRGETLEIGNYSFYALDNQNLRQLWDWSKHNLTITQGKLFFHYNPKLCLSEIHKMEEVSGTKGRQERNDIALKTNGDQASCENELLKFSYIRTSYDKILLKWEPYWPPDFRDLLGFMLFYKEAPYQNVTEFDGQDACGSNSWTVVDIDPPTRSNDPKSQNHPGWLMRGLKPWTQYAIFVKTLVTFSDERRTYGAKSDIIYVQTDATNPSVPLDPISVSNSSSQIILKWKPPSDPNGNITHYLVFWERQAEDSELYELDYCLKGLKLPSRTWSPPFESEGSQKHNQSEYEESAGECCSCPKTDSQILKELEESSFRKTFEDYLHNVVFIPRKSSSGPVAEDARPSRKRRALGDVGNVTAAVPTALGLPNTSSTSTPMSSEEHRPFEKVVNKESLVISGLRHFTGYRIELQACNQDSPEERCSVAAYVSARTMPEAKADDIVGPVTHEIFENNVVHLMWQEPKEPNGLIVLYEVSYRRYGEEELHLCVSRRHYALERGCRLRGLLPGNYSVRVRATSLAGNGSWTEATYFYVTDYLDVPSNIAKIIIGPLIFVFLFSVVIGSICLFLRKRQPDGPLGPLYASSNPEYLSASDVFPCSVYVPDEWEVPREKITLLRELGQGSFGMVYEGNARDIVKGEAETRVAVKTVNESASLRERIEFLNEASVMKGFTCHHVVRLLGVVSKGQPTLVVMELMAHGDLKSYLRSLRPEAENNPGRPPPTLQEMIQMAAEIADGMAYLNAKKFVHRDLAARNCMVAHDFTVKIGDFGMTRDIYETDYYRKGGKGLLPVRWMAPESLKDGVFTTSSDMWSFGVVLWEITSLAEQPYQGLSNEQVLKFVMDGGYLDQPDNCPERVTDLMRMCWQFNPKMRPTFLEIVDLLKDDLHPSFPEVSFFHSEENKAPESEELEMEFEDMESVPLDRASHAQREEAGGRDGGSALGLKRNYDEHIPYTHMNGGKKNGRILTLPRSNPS
Procedure: In accordance with the description by Ronald T. Borchart et al. of the United States in "Characteristics of the Large Neutral Amino Acid Transport System of Bovine Brain Microvessel Endothelial Cell Monolayers" [Journal of Neurochemistry, Vol. 47, pp. 484-488 (1986)], bovine brain microvessel endothelial cells were separated in a monolayer, whose affinity for the receptor on the endothelial cell was determined.

Row | Compound | Insulin activity (in words) [1] | 125I-insulin binding ratio (%) after addition of non-labeled compound ([2]; addition concentration 1.0 × 10 μM) | 125I-insulin binding ratio (%) after addition of non-labeled compound ([2]; addition concentration 1.0 × 10^2 μM (first line so printed)) | 125I-insulin binding ratio (%) after addition of non-labeled compound ([2]; addition concentration 1.0 × 10^2 μM (second line so printed)) | Affinity for the insulin receptor on the capillary endothelial cell (in words) ([2]; fragments obtained by solid phase synthesis, Examples 4 and 5) | Affinity for the receptor on the cerebral capillary endothelial cell (in words) ([2]; fragments obtained by trypsin digestion, Examples 1 and 2)
1 | (B25-30) pentapeptide deficient-[Phe^B25 -α-carboxyamide]insulin | acts as potently as natural insulin | – | – | – | – | –
2 | CC[C@H](C)[C@H](NC(=O)CN)C(=O)N[C@H](C(=O)N[C@@H](CCC(=O)O)C(=O)N[C@@H](CCC(N)=O)C(=O)N[C@H]1CSSC[C@@H](C(=O)N[C@@H](CO)C(=O)N[C@@H](CC(C)C)C(=O)N[C@@H](Cc2ccc(O)cc2)C(=O)O)NC(=O)[C@H]([C@@H](C)CC)NC(=O)[C@H](CO)NC(=O)[C@H]([C@@H](C)O)NC(=O)[C@H](CSSC[C@H](NC(=O)[C@H](CC(C)C)NC(=O)[C@H](Cc2c[nH]cn2)NC(=O)[C@H](CCC(N)=O)NC(=O)[C@H](CC(N)=O)NC(=O)[C@@H](NC(=O)[C@@H](N)Cc2ccccc2)C(C)C)C(=O)NCC(=O)N[C@@H](CO)C(=O)N[C@@H](Cc2c[nH]cn2)C(=O)N[C@@H](CC(C)C)C(=O)N[C@H](C(=O)N[C@@H](CCC(=O)O)C(=O)N[C@@H](C)C(=O)N[C@@H](CC(C)C)C(=O)N[C@@H](Cc2ccc(O)cc2)C(=O)O)C(C)C)NC1=O)C(C)C [F001] (I: H-FVNQHLCGSHLVEALY-OH / II: H-GIVEQCCTSICSLY-OH; disulfide I:7-II:7, II:6-II:11) | – | 93.2 ± 0.4% | 61.6 ± 1.2% | 78.5 ± 3.8% | same affinity as insuline frogments obtained in Example 1 and 2 | showed affinity
